# From patent publication US20250230193A1, “CYCLIC COMPOUND HAVING SELECTIVE KRAS INHIBITORY EFFECT ON HRAS AND NRAS” (CHUGAI SEIYAKU KABUSHIKI KAISHA, priority 2022, published 2025)
# Where two headings read alike, the source gives them in different places.
# Tests used:
# [1] = biological target: GDP-bound HRAS wild-type protein (Homo sapiens, UniProt P01112); experiment: Binding to HRAS by surface plasmon resonance (SPR), Single Cycle Kinetics; details: SPR; for HRAS/KRAS (ratio of KD value for GDP-bound HRAS wild-type protein to KD value for KRAS): KD ratio class
# [2] = biological target: GDP-bound KRAS wild-type protein (Homo sapiens, UniProt P01116); experiment: Binding to KRAS by surface plasmon resonance (SPR), Single Cycle Kinetics
# [3] = test system: human lung cancer strain NCI-H441
# [4] = biological target: GDP-bound NRAS wild-type protein (Homo sapiens, UniProt P01111); experiment: Binding to NRAS by surface plasmon resonance (SPR), Single Cycle Kinetics; details: SPR; for NRAS/KRAS (ratio of KD value for GDP-bound NRAS wild-type protein to KD value for KRAS): KD ratio class
# [5] = KD ratio, GDP-bound HRAS wild-type vs GDP-bound KRAS wild-type
# [6] = KD ratio, GDP-bound NRAS wild-type vs GDP-bound KRAS wild-type
# [7] = SPR, Single Cycle Kinetics; GDP-bound KRAS wild-type protein
# [8] = read-out: NCI-H441 IC50, NCI-H441 cells, 4 days, CellTiter-Glo
# Chain of GDP-bound NRAS wild-type protein (P01111 whole entry): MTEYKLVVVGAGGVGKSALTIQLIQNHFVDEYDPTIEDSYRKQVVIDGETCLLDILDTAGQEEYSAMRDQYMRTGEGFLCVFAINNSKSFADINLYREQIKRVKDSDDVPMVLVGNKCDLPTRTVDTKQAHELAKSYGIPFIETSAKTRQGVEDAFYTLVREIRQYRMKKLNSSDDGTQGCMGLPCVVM
# Chain of GDP-bound HRAS wild-type protein (P01112 whole entry): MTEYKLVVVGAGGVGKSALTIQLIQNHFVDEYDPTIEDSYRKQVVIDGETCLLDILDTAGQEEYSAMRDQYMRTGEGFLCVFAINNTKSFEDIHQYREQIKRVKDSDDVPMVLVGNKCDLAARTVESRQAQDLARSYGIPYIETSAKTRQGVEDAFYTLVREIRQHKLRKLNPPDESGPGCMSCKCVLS
"Kd [2, 7]","IC50 [3, 8]",SMILES,HRAS/KRAS (ratio of KD value for GDP-bound HRAS wild-type protein to KD value for KRAS) [1],NRAS/KRAS (ratio of KD value for GDP-bound NRAS wild-type protein to KD value for KRAS) [4],other results
–,–,CCO[C@@H]1C[C@H]2C(=O)NC3(CCC3)C(=O)N(C)[C@@H](C3CCCC3)C(=O)N(C)[C@H](C(=O)N(C)CC)CC(=O)N(C)[C@H]3CCCC/C=C/c4ccc(cc4)C[C@@H](C(=O)N(C)CC(=O)N[C@@H](CCc4ccc(C(F)(F)F)c(OC)c4)C(=O)N2C1)N1CC/C=C\C[C@@H](C1=O)N(C)C(=O)CN(C)C(=O)[C@H]([C@@H](C)CC)NC3=O [PP1828],–,–,"HRAS/KRAS (ratio of KD value for HRAS to KD value for KRAS) [1, 5]: B (a compound having 3 or more and less than 10 is denoted as B); Kd ([2]; SPR Single Cycle Kinetics, GDP-bound KRAS wild-type protein, 1:1 binding model): 0.039 nM; IC50 [3]: 1.9 nM; NRAS/KRAS (ratio of KD value for NRAS to KD value for KRAS) [4, 6]: A (a compound having 10 or more and less than 20 is denoted as A)"
0.14 nM,50.1 nM,CCC[C@H]1C(=O)N[C@@H]([C@@H](C)CC)C(=O)N(C)CC(=O)N(C)[C@H]2C/C=C\CCN(C2=O)[C@@H](CC2CCC(F)(F)CC2)C(=O)N(C)CC(=O)N[C@@H](CCc2cc(F)c(C(F)(F)F)c(F)c2)C(=O)N2C[C@H](OCC)C[C@H]2C(=O)NC2(CCC2)C(=O)N(C)[C@@H](C2CCCC2)C(=O)N(C)[C@H](C(=O)N(C)C)CC(=O)N1C [PP1450],A (a compound having 10 or more and less than 20 is denoted as A),A (a compound having 10 or more and less than 20 is denoted as A),–
0.2 nM,22.2 nM,CCO[C@@H]1C[C@H]2C(=O)NC3(CCC3)C(=O)N(C)[C@@H](C3CCCC3)C(=O)N(C)[C@H](C(=O)N(C)C)CC(=O)N(C)[C@@H](CC3CC3)C(=O)N[C@@H]([C@@H](C)CC)C(=O)N(C)CC(=O)N(C)[C@H]3C/C=C\CCN(C3=O)[C@@H](Cc3ccc(C(F)(F)F)cc3)C(=O)N(C)CC(=O)N[C@@H](CCc3ccc(Cl)c(Cl)c3)C(=O)N2C1 [PP1253],A (a compound having 10 or more and less than 20 is denoted as A),A (a compound having 10 or more and less than 20 is denoted as A),–
0.045 nM,12.2 nM,CCOC[C@H]1C(=O)N[C@@H]([C@@H](C)CC)C(=O)N(C)CC(=O)N(C)[C@H]2C/C=C\CCN(C2=O)[C@@H](Cc2ccc(C(F)(F)F)cc2)C(=O)N(C)CC(=O)N[C@@H](CCc2cc(F)c(C(F)(F)F)c(F)c2)C(=O)N2C[C@H](OCC)C[C@H]2C(=O)NC2(CCC2)C(=O)N(C)[C@@H](C2CCCC2)C(=O)N(C)[C@H](C(=O)N(C)C)CC(=O)N1C [PP1266],A (a compound having 10 or more and less than 20 is denoted as A),A (a compound having 10 or more and less than 20 is denoted as A),–
0.096 nM,15.2 nM,C=CC[C@H]1C(=O)N[C@@H]([C@@H](C)CC)C(=O)N(C)CC(=O)N(C)[C@H]2C/C=C\CCN(C2=O)[C@@H](CC2CCC(F)(F)CC2)C(=O)N(C)CC(=O)N[C@@H](CCc2cc(F)c(C(F)(F)F)c(F)c2)C(=O)N2C[C@H](OCC)C[C@H]2C(=O)NC2(CCC2)C(=O)N(C)[C@@H](C2CCCC2)C(=O)N(C)[C@H](C(=O)N(C)C)CC(=O)N1C [PP1454],A (a compound having 10 or more and less than 20 is denoted as A),A (a compound having 10 or more and less than 20 is denoted as A),–
0.34 nM,–,CCO[C@@H]1C[C@H]2C(=O)NC3(CCC3)C(=O)N(C)[C@@H](C3CCCC3)C(=O)N(C)[C@H](C(=O)N3CCOCC3)CC(=O)N(C)[C@@H](CC(C)C)C(=O)N[C@@H]([C@@H](C)CC)C(=O)N(C)CC(=O)N(C)[C@H]3CCCCCN(C3=O)[C@@H](Cc3ccc(F)cc3F)C(=O)N(C)CC(=O)N[C@@H](CCc3cc(F)c(C(F)(F)F)c(F)c3)C(=O)N2C1 [PP0916],–,–,"HRAS/KRAS (ratio of KD value with respect to HRAS to KD value with respect to KRAS) [1, 5]: B (a compound having 3 or more and less than 10 is denoted as B); IC50 [3]: 35.9 nM; NRAS/KRAS (ratio of KD value with respect to NRAS to KD value with respect to KRAS) [4, 6]: B (a compound having 3 or more and less than 10 is denoted as B)"
0.14 nM,11 nM,CCC[C@H]1C(=O)N[C@@H]([C@@H](C)CC)C(=O)N(C)CC(=O)N(C)[C@H]2C/C=C\CCN(C2=O)[C@@H](Cc2ccc(C(F)(F)F)cc2)C(=O)N(C)CC(=O)N[C@@H](CCc2cc(F)c(C(F)(F)F)c(F)c2)C(=O)N2C[C@H](OCC)C[C@H]2C(=O)NC2(CCC2)C(=O)N(C)[C@@H](C2CCCC2)C(=O)N(C)[C@H](C(=O)N2CCCC2)CC(=O)N1C [PP1299],A (a compound having 10 or more and less than 20 is denoted as A),A (a compound having 10 or more and less than 20 is denoted as A),–
0.076 nM,12.8 nM,CCCCCC[C@H]1C(=O)N[C@@H]([C@@H](C)CC)C(=O)N(C)CC(=O)N(C)[C@H]2C/C=C\CCN(C2=O)[C@@H](Cc2ccc(C(F)(F)F)cc2)C(=O)N(C)CC(=O)N[C@@H](CCc2cc(F)c(C(F)(F)F)c(F)c2)C(=O)N2C[C@H](OCC)C[C@H]2C(=O)NC2(CCC2)C(=O)N(C)[C@@H](C2CCCC2)C(=O)N(C)[C@H](C(=O)N(C)C)CC(=O)N1C [PP1242],A (a compound having 10 or more and less than 20 is denoted as A),A (a compound having 10 or more and less than 20 is denoted as A),–
–,–,CC[C@H](C)[C@@H]1NC(=O)[C@H](CC(C)C)N(C)C(=O)C[C@@H](C(=O)N(C)C)N(C)C(=O)[C@H](C2CCCC2)N(C)C(=O)C2(CCCC2)NC(=O)[C@@H]2CCCN2C(=O)[C@H](CCc2ccc(C(F)(F)F)c(Cl)c2)NC(=O)CN(C)C(=O)[C@H](Cc2ccc(C(F)(F)F)cc2)N2CC=C(C)C[C@@H](C2=O)N(C)C(=O)CN(C)C1=O [PP0621],–,–,"HRAS/KRAS (ratio of KD value with respect to GDP-bound HRAS wild-type protein to KD value with respect to KRAS) ([1]; KD ratio HRAS/KRAS): C (A compound having a KD ratio of 0.1 or more and less than 3 is denoted as C); Kd ([2]; GDP-bound KRAS wild-type protein, SPR Single Cycle Kinetics, 1:1 binding model): 2.4 nM; IC50 [3]: 83.6 nM; NRAS/KRAS (ratio of KD value with respect to GDP-bound NRAS wild-type protein to KD value with respect to KRAS) ([4]; KD ratio NRAS/KRAS): C (A compound having a KD ratio of 0.1 or more and less than 3 is denoted as C)"
4.3 nM,144 nM,CCO[C@@H]1C[C@H]2C(=O)NC3(CC(C)(C)C3)C(=O)N(C)[C@@H](C(CC)CC)C(=O)N(C)C(C(C)C)CC(=O)N(C)[C@@H](CC3CC3)C(=O)N[C@@H]([C@@H](C)CC)C(=O)N(C)CC(=O)N(C)[C@H]3C/C=C\CCN(C3=O)[C@@H](Cc3ccc(C(F)(F)F)cc3)C(=O)N(C)CC(=O)N[C@@H](CCc3cc(F)c(C(F)(F)F)c(F)c3)C(=O)N2C1 (some centres unmarked) [PP1593],A (a compound having 10 or more and less than 20 is denoted as A),A (a compound having 10 or more and less than 20 is denoted as A),–
0.29 nM,–,CCO[C@@H]1C[C@H]2C(=O)NC3(CCC3)C(=O)N(C)[C@@H](C3CCCC3)C(=O)N(C)[C@H](C(=O)N(C)C)CC(=O)N(C)[C@@H](CC)C(=O)N[C@@H]([C@@H](C)CC)C(=O)N(C)CC(=O)N(C)[C@H]3CCCCCN(C3=O)[C@@H](Cc3ccc(F)cc3F)C(=O)N(C)CC(=O)N[C@@H](CCc3cc(F)c(C(F)(F)F)c(F)c3)C(=O)N2C1 [PP0906],–,–,"HRAS/KRAS (ratio of KD value with respect to HRAS to KD value with respect to KRAS) [1, 5]: B (a compound having 3 or more and less than 10 is denoted as B); IC50 [3]: 36.9 nM; NRAS/KRAS (ratio of KD value with respect to NRAS to KD value with respect to KRAS) [4, 6]: B (a compound having 3 or more and less than 10 is denoted as B)"
0.046 nM,6.4 nM,CCO[C@@H]1C[C@H]2C(=O)NC3(CCC3)C(=O)N(C)[C@@H](C3CCCC3)C(=O)N(C)[C@H](C(=O)N(C)C)CC(=O)N(C)[C@@H](CC3CC3)C(=O)N[C@@H]([C@@H](C)CC)C(=O)N(C)CC(=O)N(C)[C@H]3C/C=C\CCN(C3=O)[C@@H](Cc3ccc(C(F)(F)F)cc3)C(=O)N(C)CC(=O)N[C@@H](CCc3ccc(C(F)(F)F)c(OC)c3)C(=O)N2C1 [PP1247],A (a compound having 10 or more and less than 20 is denoted as A),A (a compound having 10 or more and less than 20 is denoted as A),–
2.3 nM,64.6 nM,CCO[C@@H]1C[C@H]2C(=O)NC3(CCC3)C(=O)N(C)[C@@H](C(CC)CC)C(=O)N(C)C(C(C)C)CC(=O)N(C)[C@@H](CC3CC3)C(=O)N[C@@H]([C@@H](C)CC)C(=O)N(C)CC(=O)N(C)[C@H]3C/C=C\CCN(C3=O)[C@@H](Cc3ccc(C(F)(F)F)cc3)C(=O)N(C)CC(=O)N[C@@H](CCc3cc(F)c(C(F)(F)F)c(F)c3)C(=O)N2C1 (some centres unmarked) [PP1595],A (a compound having 10 or more and less than 20 is denoted as A),A (a compound having 10 or more and less than 20 is denoted as A),–
0.074 nM,18.7 nM,CCO[C@@H]1C[C@H]2C(=O)NC3(CCC3)C(=O)N(C)[C@@H](C3CCCC3)C(=O)N(C)[C@H](C(=O)N(C)C)CC(=O)N(C)[C@@H](CC3CC3)C(=O)N[C@@H]([C@@H](C)CC)C(=O)N(C)CC(=O)N(C)[C@H]3C/C=C\CCN(C3=O)[C@@H](Cc3ccc(C)cc3)C(=O)N(C)CC(=O)N[C@@H](CCc3cc(F)c(C(F)(F)F)c(F)c3)C(=O)N2C1 [PP1407],A (a compound having 10 or more and less than 20 is denoted as A),A (a compound having 10 or more and less than 20 is denoted as A),–
